Values joined by “and” are separate entries in the source; they are usually repeats but may differ in a detail not shown here. Equal values may be shown once. Inconclusive results and toxic doses are left out. Rule for the calls: active = survival T/C of 150% or more; inactive = T/C below 125% in these data.
System: CD2F1 mice, L1210 leukemia ip, survival T/C
Test: NCI In Vivo Anticancer Drug Screen. Data for tumor model L1210 Leukemia (intraperitoneal) in CD2F1 (CDF1) mice
Conditions: higher = longer survival
Method in brief: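 Transplantable tumor in mice; compound-treated vs vehicle-treated groups. Read-out = treated/control ratio of the measured endpoint.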

[1] = endpoint: mean survival time, dose: 100.0 mg/kg/injection, schedule: Q01DX001 (ip), vehicle: saline with Tween-80
[2] = endpoint: mean survival time, dose: 100.0 mg/kg/injection, schedule: Q04DX002 (ip), vehicle: saline with Tween-80
[3] = endpoint: mean survival time, dose: 100.0 mg/kg/injection, schedule: Q04DX003 (ip), vehicle: saline with Tween-80
[4] = endpoint: mean survival time, dose: 200.0 mg/kg/injection, schedule: Q01DX001 (ip), vehicle: saline with Tween-80
[5] = endpoint: mean survival time, dose: 200.0 mg/kg/injection, schedule: Q04DX002 (ip), vehicle: saline with Tween-80
[6] = endpoint: mean survival time, dose: 200.0 mg/kg/injection, schedule: Q04DX003 (ip), vehicle: saline with Tween-80
[7] = endpoint: mean survival time, dose: 400.0 mg/kg/injection, schedule: Q01DX001 (ip), vehicle: saline with Tween-80
[8] = endpoint: mean survival time, dose: 400.0 mg/kg/injection, schedule: Q04DX002 (ip), vehicle: saline with Tween-80
[9] = endpoint: mean survival time, dose: 400.0 mg/kg/injection, schedule: Q04DX003 (ip), vehicle: saline with Tween-80
[10] = endpoint: mean survival time, dose: 100.0 mg/kg/injection, schedule: Q01DX001 (ip), vehicle: saline
[11] = endpoint: mean survival time, dose: 200.0 mg/kg/injection, schedule: Q01DX001 (ip), vehicle: saline
[12] = endpoint: mean survival time, dose: 400.0 mg/kg/injection, schedule: Q01DX001 (ip), vehicle: saline

Measured: T/C

CC(=O)Nc1nc(N)nc2nonc12
inactive: endpoint: mean survival time, dose: 12.5 mg/kg/injection, schedule: Q01DX005 (ip), vehicle: saline with Tween-80 100 % of control | endpoint: mean survival time, dose: 25.0 mg/kg/injection, schedule: Q01DX005 (ip), vehicle: saline with Tween-80 98 % of control | endpoint: mean survival time, dose: 50.0 mg/kg/injection, schedule: Q01DX005 (ip), vehicle: saline with Tween-80 100 % of control | endpoint: mean survival time, dose: 100.0 mg/kg/injection, schedule: Q01DX005 (ip), vehicle: saline with Tween-80 96 % of control | endpoint: mean survival time, dose: 200.0 mg/kg/injection, schedule: Q01DX005 (ip), vehicle: saline with Tween-80 93 % of control

COc1cc([N+](=O)[O-])ccc1NC(=O)N1CCCC(C)C1 (stereo not drawn)
inactive: [1] 94 % of control and 95 % of control | endpoint: mean survival time, dose: 100.0 mg/kg/injection, schedule: Q01DX009 (ip), vehicle: saline with Tween-80 88 % of control and 93 % of control | [2] 98 % of control | [3] 101 % of control | [4] 86 % of control and 89 % of control | endpoint: mean survival time, dose: 200.0 mg/kg/injection, schedule: Q01DX009 (ip), vehicle: saline with Tween-80 95 % of control and 106 % of control | [5] 98 % of control | [6] 103 % of control | [7] 86 % of control | endpoint: mean survival time, dose: 400.0 mg/kg/injection, schedule: Q01DX009 (ip), vehicle: saline with Tween-80 88 % of control and 98 % of control | [8] 96 % of control | [9] 100 % of control

O=C(O)c1cc(=O)c2ccccc2[nH]1
inactive: endpoint: mean survival time, dose: 50.0 mg/kg/injection, schedule: Q01DX001 (ip), vehicle: saline 93 % of control | [10] 93 % of control | [11] 91 % of control

Nc1nc2c(ncn2-c2ccc3oc4ccccc4c3c2)c(=O)[nH]1
inactive: [1] 93 % of control and 108 % of control | [2] 101 % of control | [4] 89 % of control and 97 % of control | [5] 97 % of control | [7] 89 % of control and 101 % of control | [8] 108 % of control

CCOC(=O)N1CCN(N=Nc2c(C(=O)OC)n[nH]c2C)CC1
inactive: endpoint: mean survival time, dose: 75.0 mg/kg/injection, schedule: Q01DX001 (ip), vehicle: other 103 % of control | endpoint: mean survival time, dose: 150.0 mg/kg/injection, schedule: Q01DX001 (ip), vehicle: other 105 % of control | endpoint: mean survival time, dose: 300.0 mg/kg/injection, schedule: Q01DX001 (ip), vehicle: other 105 % of control

c1ccc(N=C(c2ccccc2)c2ccccc2)cc1
inactive: [3] 103 % of control | [6] 93 % of control | [9] 93 % of control

CCCC1NNC(CCC)NN1 (stereo not drawn)
inactive: endpoint: mean survival time, dose: 75.0 mg/kg/injection, schedule: Q01DX001 (ip), vehicle: saline 102 % of control

CC(C)OP(=O)(OCCO)C(Cl)Cl (stereo not drawn)
inactive: [10] 97 % of control | [11] 94 % of control | [12] 96 % of control

CC(=O)OC1COC(n2cnc3c(N)ncnc32)C(OC(C)=O)C1OC(C)=O (stereo not drawn)
inactive: [10] 108 % of control | [11] 101 % of control | [12] 90 % of control

CCN(CC)CCN=Cc1c(O)c(O)c(C(C)C)c2cc(C)c(-c3c(C)cc4c(C(C)C)c(O)c(O)c(C=NCCN(CC)CC)c4c3O)c(O)c12
inactive: [10] 90 % of control | [11] 90 % of control | [12] 93 % of control

O=C([O][Bi]([c]1ccccc1)[c]1ccccc1)c1ccccc1
inactive: endpoint: median survival time, dose: 6.25 mg/kg/injection, schedule: Q01DX009 (ip), vehicle: Klucel (hydroxypropylcellulose) (HPC) 97 % of control | endpoint: median survival time, dose: 12.5 mg/kg/injection, schedule: Q01DX009 (ip), vehicle: Klucel (hydroxypropylcellulose) (HPC) 95 % of control | endpoint: median survival time, dose: 25.0 mg/kg/injection, schedule: Q01DX009 (ip), vehicle: Klucel (hydroxypropylcellulose) (HPC) 101 % of control

N#CSCc1ccc(CSC#N)c(Br)c1
inactive: endpoint: mean survival time, dose: 75.0 mg/kg/injection, schedule: Q04DX003 (ip), vehicle: saline 102 % of control | endpoint: mean survival time, dose: 150.0 mg/kg/injection, schedule: Q04DX003 (ip), vehicle: saline 98 % of control | endpoint: mean survival time, dose: 300.0 mg/kg/injection, schedule: Q04DX003 (ip), vehicle: saline 101 % of control

Reference: PubChem BioAssay AID256 (DTP/NCI, 2004)
